Among the test systems are OVCAR-5 ovarian; UO-31 renal; DU-145 prostate; SF-539 CNS; MOLT-4 leukemia; MCF7 breast; MDA-MB-231 breast; CAKI-1 renal; HCC-2998 colon; OVCAR-3 ovarian.
Test in all cases: DTP human tumour cell line panel, 48 h

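These data come from cells grown in 96-well plates and exposed to compound for 48 hours at five concentrations. GI50: concentration for 50% inhibition of growth. TGI: concentration producing complete growth inhibition.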

The term GI50 denotes the concentration at which growth is held to half of that of the control. Usually TGI stands for the concentration at which net growth stops. Higher therefore signals lower sensitivity of the cells. With `C=C1CCC2C3(C)COC(c4ccc(Cl)cc4)OC3CCC2(C)C1/C=C/C1=CCOC1=O` (centres undefined), the GI50 in the experiment with OVCAR-5 ovarian is 70.2 µM; with UO-31 renal, more than 100 µM; in the experiment on DU-145 prostate it was 24 µM; with SF-539 CNS it was 11.2 µM; in the experiment on MOLT-4 leukemia, 4.5 µM; with MCF7 breast, 3.35 µM. Further, the GI50 in the experiment with MDA-MB-231 breast is 6.68 µM; in the experiment on CAKI-1 renal, 6.87 µM; in the experiment with HCC-2998 colon, 6.73 µM; in the experiment on OVCAR-3 ovarian, 7.52 µM. Also, the TGI in the experiment on OVCAR-5 ovarian, with UO-31 renal, in the experiment on DU-145 prostate, in the experiment on SF-539 CNS, in the experiment with MOLT-4 leukemia and with MCF7 breast was more than 100 µM each time. In addition, the TGI was more than 100 µM in the experiment with MDA-MB-231 breast, more than 100 µM with CAKI-1 renal, more than 100 µM with HCC-2998 colon and 56.8 µM with OVCAR-3 ovarian.

Turning to `CC1CCc2c(c(CC3CC(=O)NC(=O)C3)nn2-c2ccccc2)C1` (centres undefined), the TGI in the experiment on OVCAR-5 ovarian, in the experiment on UO-31 renal, in the experiment with DU-145 prostate, in the experiment with SF-539 CNS, with MOLT-4 leukemia and in the experiment with MCF7 breast was more than 100 µM each time. In addition, the TGI in the experiment on MDA-MB-231 breast, in the experiment with CAKI-1 renal, with HCC-2998 colon and in the experiment on OVCAR-3 ovarian was more than 100 µM in each case.

`NNC(=S)Nc1cccc(Cl)c1`: the TGI with OVCAR-5 ovarian, in the experiment with UO-31 renal, with DU-145 prostate, with SF-539 CNS, with MOLT-4 leukemia and in the experiment on MCF7 breast was more than 100 µM each time. Besides, the TGI with MDA-MB-231 breast was more than 100 µM; with CAKI-1 renal it was more than 100 µM; in the experiment with HCC-2998 colon it was more than 100 µM; in the experiment with OVCAR-3 ovarian, 92.3 µM.

For the molecule `O=C(Cn1c(C(=O)c2ccccc2)nc2ccccc21)c1ccc(F)cc1`, the GI50 was more than 100 µM in the experiment with OVCAR-5 ovarian; more than 43.8 µM in the experiment with UO-31 renal; more than 48.7 µM in the experiment on DU-145 prostate; 16 µM in the experiment on SF-539 CNS; 2.49 µM with MOLT-4 leukemia; 3.27 µM in the experiment on MCF7 breast. Moreover, the GI50 was 15.7 µM with MDA-MB-231 breast, 6.41 µM in the experiment on HCC-2998 colon and 3.39 µM in the experiment with OVCAR-3 ovarian. The concentration for total growth inhibition (TGI) is more than 100 µM with OVCAR-5 ovarian; more than 100 µM in the experiment on UO-31 renal; more than 100 µM in the experiment on DU-145 prostate; more than 100 µM with SF-539 CNS; more than 28.1 µM in the experiment on MOLT-4 leukemia; more than 72 µM in the experiment with MCF7 breast. Also, the TGI is more than 100 µM with MDA-MB-231 breast, more than 30.9 µM in the experiment with CAKI-1 renal, more than 100 µM in the experiment with HCC-2998 colon and more than 25.5 µM in the experiment on OVCAR-3 ovarian.

On to `CC1=NN(C(=O)c2ccncc2)C(=O)C1N=Nc1ccc2ccccc2c1` (centres undefined), for which the TGI was more than 100 µM in the experiment with OVCAR-5 ovarian; more than 100 µM in the experiment on UO-31 renal; more than 100 µM in the experiment on DU-145 prostate; more than 100 µM in the experiment with SF-539 CNS; more than 38.1 µM in the experiment on MOLT-4 leukemia; more than 100 µM in the experiment with MCF7 breast. Also, the total growth inhibition concentration (TGI) in the experiment with MDA-MB-231 breast is more than 100 µM; in the experiment with CAKI-1 renal, more than 100 µM; with HCC-2998 colon, 15.2 µM; in the experiment on OVCAR-3 ovarian it was more than 100 µM.

For `CC(=O)NC(CCCCN(Cc1ccccc1)C(=O)N(CCCl)N=O)C(=O)NCc1ccccc1` (centres undefined), the total growth inhibition concentration (TGI) with OVCAR-5 ovarian is more than 87.3 µM; in the experiment on UO-31 renal, 57.2 µM; in the experiment on DU-145 prostate, more than 51.9 µM; with SF-539 CNS it was 28.5 µM; with MOLT-4 leukemia it was more than 82.1 µM; in the experiment with MCF7 breast, more than 100 µM. Also, the TGI in the experiment with MDA-MB-231 breast was 47.9 µM; with CAKI-1 renal, 97.7 µM; in the experiment on HCC-2998 colon it was more than 100 µM; in the experiment on OVCAR-3 ovarian, more than 100 µM.

Regarding `COc1cc(-c2ccc(NC(=O)NC3CC3)c(OC)c2)ccc1NC(=O)NC1CC1`, the GI50 in the experiment on OVCAR-5 ovarian was more than 100 µM; with UO-31 renal, 5.27 µM; in the experiment on DU-145 prostate, 6.89 µM; with SF-539 CNS, 4.86 µM; in the experiment on MOLT-4 leukemia it was 3.33 µM; in the experiment on MCF7 breast, 5.69 µM. Further, the GI50 was 11.6 µM with MDA-MB-231 breast, 6.2 µM with CAKI-1 renal, 28 µM in the experiment on HCC-2998 colon and 25.7 µM in the experiment on OVCAR-3 ovarian. For the same molecule, the TGI in the experiment on OVCAR-5 ovarian is more than 100 µM; in the experiment on UO-31 renal, more than 100 µM; in the experiment with DU-145 prostate it was more than 100 µM; with SF-539 CNS, 99.8 µM; in the experiment on MOLT-4 leukemia it was more than 100 µM; in the experiment on MCF7 breast, more than 100 µM. The total growth inhibition concentration (TGI) in the experiment with MDA-MB-231 breast was more than 100 µM; with CAKI-1 renal it was more than 60.7 µM; in the experiment with HCC-2998 colon, more than 100 µM; with OVCAR-3 ovarian it was more than 100 µM.

On to `CCOC(=O)c1csc(NC(=O)COc2cccc(/C=C3\CSc4ccccc4C3=O)c2)n1`, for which the GI50 with OVCAR-5 ovarian was 1.04 µM; in the experiment on UO-31 renal, 0.145 µM; in the experiment with DU-145 prostate, 0.409 µM; with SF-539 CNS, 0.421 µM; in the experiment on MOLT-4 leukemia, more than 100 µM; with MCF7 breast, 1.13 µM. Besides, the GI50 in the experiment on MDA-MB-231 breast is 3.87 µM; with CAKI-1 renal, 1.26 µM; in the experiment on HCC-2998 colon, 0.0447 µM; in the experiment on OVCAR-3 ovarian, 0.158 µM. The TGI is 5.42 µM in the experiment with OVCAR-5 ovarian; 0.286 µM in the experiment with UO-31 renal; 0.932 µM in the experiment on DU-145 prostate; 1.6 µM in the experiment on SF-539 CNS; more than 100 µM in the experiment on MOLT-4 leukemia; 7.25 µM with MCF7 breast. Moreover, the TGI in the experiment with MDA-MB-231 breast is 19.1 µM; in the experiment with CAKI-1 renal, 18.2 µM; in the experiment with HCC-2998 colon, 0.382 µM; in the experiment on OVCAR-3 ovarian it was 0.332 µM.

The values above are taken from PubChem BioAssay (NCI).
